Series [1] concerns ovarian cancer (OVCAR-3) cells. As to the kind of experiment: OVCAR-3 cell viability (MTT), peptides and NAD^+ alone or in combination. Type of series: cell-based, human. To be noted: NAD^+ 1 mM alone, 96 hours. On the procedure: Specifically, 2.5×10^3 ovarian cancer (OVCAR-3) cells were cultured in a 96-well plate for 24 hours under 37° C. and 5% CO2 conditions, and then divided into the following groups and treated with each peptide according to Examples at GI50 concentration alone or in combination. • 1) Untreated group • 2) Group treated with NAD^+ at 1 mM concentration alone • 3) Group treated with peptide of Example 2 at 25 μM concentration alone • 4) Group treated with CPP-peptide of Example 16 at 10 μM concentration alone • 5) Group treated in combination with NAD^+ at 1 mM concentration and peptide of Example 2 at 25 μM concentration (Combination 1) • 6) Group treated in combination with NAD^+ at 1 mM concentration and CPP-peptide of Example 16 at 10 μM concentration (Combination 2)
(§1) The cells were then cultured for another 96 hours under 37° C. and 5% CO2 conditions, and 10 μl of 3-(4,5-dimethylthiazol-2-yl)-2,5-diphenyltetrazolium bromide reagent was added to each well and reacted for 1 hour. The reagent was removed at the end of the reaction, 200 μl of dimethyl sulfoxide was then added to each well, and the absorbance was measured to determine the cell viability.

Series [2] has as its system MDA-MB-231 cancer cells. As to the kind of experiment: MDA-MB-231 cell viability (MTT), sustained release derivative alone or in combination. To be noted: 96 hours. Type of series: cell-based. The procedure: Each of 2.5×10^3 human-derived pancreatic cancer (Aspc-1), kidney cancer (Caki-1), breast cancer (HCC1937), liver cancer (HepG2), lung cancer (H1975), colon cancer (HCT116), ovarian cancer (OVCAR-3), brain cancer (U87) cells were cultured in a 96-well plate under 37° C. and 5% CO2 conditions for 24 hours, and then treated with the sustained release derivative alone. In addition, MDA-MB-231 cancer cells were divided into the following groups and treated with each formulation at GI20 concentration alone or in combination. • 1) Untreated group • 2) Group treated with sustained-release derivative alone at 5 μM concentration • 3) Group treated with ADPR at 2 mM concentration alone • 4) Group treated with NAD^+ at 2 mM concentration alone • 5) Groups treated with various anti-cancer drugs alone (Cisplatin at 2 μM, Docetaxel at 1 μM, Dichloroacetate at 3 mM, Doxorubicin at 2 μM, Sorafenib at 2 μM, Osimertinib at 10 nM, Trastuzumab at 0.2 μM, Bevacizumab at 0.2 nM, Tamoxifen at 0.2 μM, or Olaparib at 1 μM) • 6) Group treated in combination with ADPR at 2 mM concentration and a sustained-release derivative at 5 μM concentration • 7) Group treated in combination with ADPR at 2 mM concentration, NAD^+ at 2 mM concentration, and a sustained-release derivative at 5 μM concentration • 8) Group treated in combination with ADPR at 2 mM concentration, a sustained-release derivative at 5 μM concentration, and various anti-cancer drugs (same concentration as Group 5 above).
The cells were then cultured for another 96 hours at 37° C. and 5% CO2, and 10 μl of 3-(4,5-dimethylthiazol-2-yl)-2,5-diphenyltetrazolium bromide reagent was added to each well and reacted for 1 hour. The reagent was removed at the end of the reaction, 200 μl of dimethyl sulfoxide was then added to each well, and the absorbance was measured to determine the cell viability.

The test system of series [3] is PARP inhibitor-resistant breast cancer (HCC1937) cells. Description: Cell viability (MTT) in PARP inhibitor-resistant cancer cell line. Type of series: cell-based, human. To be noted: Homo sapiens, Olaparib 2 μM alone, 96 hours, read-out: cancer cells viable. The procedure: Specifically, 2.5×10^3 PARP inhibitor-resistant breast cancer (HCC1937) cells were cultured in a 96-well plate for 24 hours under 37° C. and 5% CO2 conditions.
The cells were then divided into the following groups and treated with each peptide according to Examples at GI50 concentration alone or in combination. • 1) Untreated group • 2) Group treated with PARP inhibitor (Olaparib) at 2 μM concentration • 3) Group treated with ADPR at 1 mM concentration alone • 4) Groups treated with each peptide of Examples 1 to 6 at 25 μM concentration alone • 5) Groups treated with each CPP-peptide of Examples 15 to 20 at 10 μM concentration alone • 6) Group treated in combination with ADPR at 1 mM concentration and each peptide of Examples 1 to 6 at 25 μM concentration (Combination 1) • 6) Group treated in combination with ADPR at 1 mM concentration and CPP-peptide of Examples 15 to 20 at 10 μM concentration (Combination 2)
as §1

The nature of series [4]: Normal cytotoxicity of sustained release derivative alone or in combination (MTT). Type of series: cell-based. To be noted: human, MRC5 cells (normal), sustained-release derivative alone, read-out: viability of normal cells compared to the untreated group. On the procedure:
In a 96-well plate, 2.5×10^3 human-derived normal MRC5 cells were cultured for 24 hours under 37° C. and 5% CO2 conditions, and then treated with the sustained-release derivative and ADPR alone or in combination.
The cells were then cultured for another 96 hours at 37° C. and 5% CO2, and 10 μl of 3-(4,5-dimethylthiazol-2-yl)-2,5-diphenyltetrazolium bromide reagent was added to each well and reacted for 1 hour. The MTT reagent was removed at the end of the reaction, 200 μl of dimethyl sulfoxide was then added to each well, and the absorbance was measured to determine the cell viability.

Where a SMILES comes first, the peptide text is derived from it. [ ]: non-standard residue; d: D form. The star is where a group is joined. Stearoyl = CCCCCCCCCCCCCCCCCC(=O)*; AEEA = NCCOCCOCC(=O)O

As for `NC(=O)c1ccc[n+]([C@@H]2O[C@H](COP(=O)(O)OP(=O)(O)OC[C@H]3O[C@@H](n4cnc5c(N)ncnc54)[C@H](O)[C@@H]3O)[C@@H](O)[C@H]2O)c1` [NAD^+, nicotinamide adenine dinucleotide], the “cell growth / viability vs control group” value in series [1] was “not significantly different from the control group”. Moreover, the viability at 2000 µM in series [2] (Homo sapiens, single treatment (derivative 5 μM, ADPR 2 mM, NAD^+ 2 mM, anti-cancer drugs)) stood at 80%.
`O=C(c1cc(Cc2n[nH]c(=O)c3ccccc23)ccc1F)N1CCN(C(=O)C2CC2)CC1` [Olaparib, reference compound]: the viability at 2 µM in series [3] was ~80%.
Turning to `CCCCCCCCCCCCCCCCCC(=O)NCCCC[C@H](NC(=O)[C@H](CCCNC(=N)N)NC(=O)[C@H](CCCNC(=N)N)NC(=O)[C@H](CCCNC(=N)N)NC(=O)CNC(=O)[C@H](Cc1c[nH]cn1)NC(=O)[C@H](CCC(=O)O)NC(=O)[C@H](CC(N)=O)NC(=O)[C@H](CCCNC(=N)N)NC(=O)[C@H](CCCNC(=N)N)NC(=O)[C@H](Cc1ccc(O)cc1)NC(=O)[C@H](CCC(N)=O)NC(=O)[C@@H](NC(=O)[C@H](CCSC)NC(=O)[C@H](CC(N)=O)NC(=O)[C@H](CCC(=O)O)NC(=O)[C@H](CC(C)C)NC(=O)[C@H](CC(=O)O)NC(=O)[C@H](C)NC(=O)[C@@H](NC(=O)[C@H](Cc1ccc(O)cc1)NC(=O)[C@H](CC(C)C)NC(=O)[C@H](Cc1ccccc1)NC(=O)[C@H](CCC(N)=O)NC(=O)[C@@H]1CCCN1C(=O)[C@H](CCCNC(=N)N)NC(=O)[C@H](CCCNC(=N)N)NC(=O)[C@H](CCCNC(=N)N)NC(=O)[C@H](CCC(N)=O)NC(=O)[C@H](CCCNC(=N)N)NC(=O)[C@H](CCCNC(=N)N)NC(=O)[C@H](CCCCN)NC(=O)[C@H](CCCCN)NC(=O)[C@H](CCCNC(=N)N)NC(=O)CNC(=O)COCCOCCN)C(C)C)C(C)C)C(=O)N[C@H](C(=O)N[C@@H](CCCCN)C(=O)N[C@@H](CCCNC(=N)N)C(N)=O)[C@@H](C)CC` [sustained-release derivative] (H-[AEEA]GRKKRRQRRRPQFLYVADLENMVQYRRNEHGRRRK(Stearoyl)IKR-NH2; C-terminus assumed), the viability at 96 h in series [4] is ≥ 90%. Further, the “cytotoxicity, triple-drug combination” value in series [2] (sustained-release derivative 5 μM + ADPR 2 mM + NAD^+ 2 mM or various anti-cancer drugs) was “significantly superior cytotoxicity”. Besides, the “cytotoxicity, combination with ADPR” value in series [2] (sustained-release derivative 5 μM + ADPR 2 mM) is “showed cytotoxicity”.
